Measured values published in paper PMC4536998 (Oncotarget, 2015).
pKd: −log10 of the molar value.

Biological target: T1, embryonic ectoderm development (EED) (Homo sapiens, UniProt O75530)
T1 construct: recombinant EED
Assay: SPR (Biacore […], EED immobilized on CM5 chip, […] Langmuir fit); supported by competitive co-IP against EZH2
Type: binding

T1 sequence (O75530 2-441): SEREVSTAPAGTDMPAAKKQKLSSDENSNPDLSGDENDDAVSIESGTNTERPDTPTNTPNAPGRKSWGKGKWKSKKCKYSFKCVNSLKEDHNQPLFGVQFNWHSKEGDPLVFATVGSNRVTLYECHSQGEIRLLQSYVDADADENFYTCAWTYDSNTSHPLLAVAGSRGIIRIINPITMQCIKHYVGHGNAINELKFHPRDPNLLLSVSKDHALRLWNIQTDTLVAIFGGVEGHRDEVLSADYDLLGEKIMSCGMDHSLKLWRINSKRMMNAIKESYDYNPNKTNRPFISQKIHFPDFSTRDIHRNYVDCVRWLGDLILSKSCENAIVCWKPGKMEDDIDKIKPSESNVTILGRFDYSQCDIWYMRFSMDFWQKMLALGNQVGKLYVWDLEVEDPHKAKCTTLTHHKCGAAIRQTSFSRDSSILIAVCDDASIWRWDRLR

## O=C(O[C@@H]1Cc2c(O)cc(O)cc2O[C@@H]1c1cc(O)c(O)c(O)c1)c1cc(O)c(O)c(O)c1 [1E7, EGCG]
  pKd: 4.82
